# Where two headings read alike, the source gives them in different places.
# What was measured:
# [1] = test system: Mycosphaerella graminicola; Anamorph: Septoria tritici; test: Leaf blotch of wheat (SEPTTR) disease control on wheat seedlings; format: in vivo; details: Zymoseptoria tritici, wheat; for pest or weed control at 100 ppm: 100 ppm (high volume); for pest or weed control at 121.5 g/ha: 121.5 g/H (low volume track spray)
# Method: Evaluation of Fungicidal Activity: Leaf Blotch of Wheat (Mycosphaerella graminicola; Anamorph: Septoria tritici; Bayer Code […]) Technical grades of materials were dissolved in acetone, which were then mixed with nine volumes of water containing 110 ppm Triton X-100. The fungicide solutions were applied onto wheat seedlings using an automated booth sprayer to run-off. All sprayed plants were allowed to air dry prior to further handling. All fungicides were evaluated using the aforementioned method for their activity vs. all target diseases. Wheat leaf blotch and brown rust activity were also evaluated using track spray applications, in which case the fungicides were formulated as EC formulations, containing 0.1% Trycol 5941 in the spray solutions. Wheat plants (variety Yuma) were grown from seed in a greenhouse in 50% mineral soil/50% soil-less Metro mix until the first leaf was fully emerged, with 7-10 seedlings per pot. These plants were inoculated with an aqueous spore suspension of Septoria tritici either prior to or after fungicide treatments. After inoculation the plants were kept in 100% relative humidity (one day in a dark dew chamber followed by two to three days in a lighted dew chamber at 20° C.) to permit spores to germinate and infect the leaf. The plants were then transferred to a greenhouse set at 20° C. for disease to develop. When disease symptoms were fully expressed on the l^st leaves of untreated plants, infection levels were assessed on a scale of 0 to 100 percent disease severity. Percent disease control was calculated using the ratio of disease severity on treated plants relative to untreated plants.
# [2] = test system: Puccinia triticina; test: Wheat brown rust (PUCCRT) disease control on wheat seedlings; format: in vivo; details: for pest or weed control at 100 ppm: 100 ppm (high volume); for pest or weed control at 121.5 g/ha: 121.5 g/H (low volume track spray)
# Method: Technical grades of materials were dissolved in acetone, which were then mixed with nine volumes of water containing 110 ppm Triton X-100. The fungicide solutions were applied onto wheat seedlings using an automated booth sprayer to run-off. All sprayed plants were allowed to air dry prior to further handling. All fungicides were evaluated using the aforementioned method for their activity vs. all target diseases. Wheat leaf blotch and brown rust activity were also evaluated using track spray applications, in which case the fungicides were formulated as EC formulations, containing 0.1% Trycol 5941 in the spray solutions. Wheat plants (variety Yuma) were grown from seed in a greenhouse in 50% mineral soil/50% soil-less Metro mix until the first leaf was fully emerged, with 7-10 seedlings per pot. These plants were inoculated with an aqueous spore suspension of Septoria tritici either prior to or after fungicide treatments. After inoculation the plants were kept in 100% relative humidity (one day in a dark dew chamber followed by two to three days in a lighted dew chamber at 20° C.) to permit spores to germinate and infect the leaf. The plants were then transferred to a greenhouse set at 20° C. for disease to develop. When disease symptoms were fully expressed on the l^st leaves of untreated plants, infection levels were assessed on a scale of 0 to 100 percent disease severity. Percent disease control was calculated using the ratio of disease severity on treated plants relative to untreated plants. Evaluation of Fungicidal Activity: Wheat Brown Rust (Puccinia triticina; Synonym: Puccinia recondite f sp. tritici; Bayer code PUCCRT) Wheat plants (variety Yuma) were grown from seed in a greenhouse in 50% mineral soil/50% soil-less Metro mix until the first leaf was fully emerged, with 7-10 seedlings per pot. These plants were inoculated with an aqueous spore suspension of Puccinia triticina either prior to or after fungicide treatments. After inoculation the plants were kept in a dark dew room at 22° C. with 100% relative humidity overnight to permit spores to germinate and infect the leaf. The plants were then transferred to a greenhouse set at 24° C. for disease to develop. Fungicide formulation, application and disease assessment followed the procedures as described in the Example A.
# [3] = 24 h, 1 Day Protectant, read-out: SEPTTR 1DP disease control rating
# [4] = 72 h, 3 Day Curative, read-out: SEPTTR 3DC disease control rating
# [5] = 24 h, 1 Day Protectant, read-out: PUCCRT 1DP disease control rating
# [6] = 72 h, 3 Day Curative, read-out: PUCCRT 3DC disease control rating
SMILES,"pest or weed control at 100 ppm [1, 3]","pest or weed control at 100 ppm [1, 4]","pest or weed control at 100 ppm [2, 5]","pest or weed control at 100 ppm [2, 6]","pest or weed control at 121.5 g/ha [1, 3]","pest or weed control at 121.5 g/ha [1, 4]","pest or weed control at 121.5 g/ha [2, 5]","pest or weed control at 121.5 g/ha [2, 6]"
COc1ccnc(C(=O)N[C@H]2CCC[C@H](OCc3ccccc3)[C@@H](CCC(C)C)[C@H](C)OC2=O)c1O [Compound 58],< 70%,< 70%,> 70%,> 70%,–,–,–,–
COc1ccnc(C(=O)N[C@H]2CCC[C@H](Oc3ccc(C)cc3)[C@@H](Cc3ccc(F)cc3)[C@H](C)OC2=O)c1OC(C)=O [Compound 21],–,–,–,–,> 70%,< 70%,> 70%,< 70%
COc1ccnc(C(=O)N[C@H]2CCC[C@H](OCC3CC3)[C@@H](Cc3ccccc3)[C@H](C)OC2=O)c1O [Compound 67],> 70%,> 70%,> 70%,> 70%,–,–,–,–
CCCO[C@H]1CCC[C@H](NC(=O)c2nccc(OC)c2O)C(=O)O[C@@H](C)[C@@H]1Cc1ccc(F)cc1 [Compound 37],> 70%,< 70%,> 70%,> 70%,–,–,–,–
CCCC[C@H]1[C@H](C)OC(=O)[C@@H](NC(=O)c2nccc(OC)c2O)CCC[C@@H]1OCCCC(F)(F)F [Compound 13],> 70%,< 70%,> 70%,< 70%,–,–,–,–
CCCC[C@H]1[C@H](C)OC(=O)[C@@H](NC(=O)c2nccc(OC)c2OC(C)=O)CCC[C@@H]1OC(=O)C(C)C [Compound 44],–,–,–,–,> 70%,> 70%,> 70%,> 70%
COc1ccnc(C(=O)N[C@H]2CCC[C@H](OCc3ccccc3)[C@@H](CCC(C)C)[C@H](C)OC2=O)c1OCOC(C)=O [Compound 1],–,–,–,–,> 70%,> 70%,> 70%,> 70%
CCCO[C@H]1CCC[C@H](NC(=O)c2nccc(OC)c2OCOC(C)=O)C(=O)O[C@@H](C)[C@@H]1Cc1ccc(F)cc1 [Compound 7],–,–,–,–,> 70%,> 70%,> 70%,> 70%
COc1ccnc(C(=O)N[C@H]2CCC[C@H](Oc3ccc(C)cc3)[C@@H](Cc3ccc(F)cc3)[C@H](C)OC2=O)c1O [Compound 38],> 70%,< 70%,> 70%,< 70%,–,–,–,–
COc1ccnc(C(=O)N[C@H]2CCC[C@H](Oc3ccc(C)cc3)[C@@H](Cc3ccccc3)[C@H](C)OC2=O)c1OC(C)=O [Compound 55],–,–,–,–,> 70%,< 70%,> 70%,> 70%
CCOCC(=O)OCOc1c(OC)ccnc1C(=O)N[C@H]1CCC[C@H](Oc2ccc(C)cc2)[C@@H](Cc2ccc(F)cc2)[C@H](C)OC1=O [Compound 35],–,–,–,–,< 70%,< 70%,> 70%,< 70%
COc1ccnc(C(=O)N[C@H]2CCC[C@H](OCC3CC3)[C@@H](Cc3ccc(F)cc3)[C@H](C)OC2=O)c1O [Compound 26],> 70%,< 70%,> 70%,> 70%,–,–,–,–

# Source: patent US9247741B2, “Use of macrocyclic picolinamides as fungicides” (DOW AGROSCIENCES LLC, priority 2013, dated 2016)
